Experimental data reported in patent US7964556B1, “Antimicrobial peptides and use thereof” (Toagosei Co., Ltd, priority 2004, dated 2011).
Where two headings read alike, the source gives them in different places. Where a SMILES comes first, the peptide text is derived from it.

Experiments:
Staphylococcus aureus = type: cell-based; conditions: for antimicrobial activities against gram-positive bacteria (S. aureus), in words: summary of Table 2
Method: (§1) Regarding the antimicrobial peptide in samples 1 to 14 and the comparative sample 1, the antimicrobial activities (minimum inhibitory concentration: MIC) with respect to gram-negative bacteria (Escherichia coli) and gram-positive bacteria (Staphylococcus aureus) were determined, as described below, by a liquid medium dilution technique using a 96-well microplate. First, a drug (synthesized peptide) solution having a concentration of 40 times of the highest test concentration was prepared using sterile distilled water, and thereafter liquid-bouillon mediums (“NUTRIENT BROTH Dehydrated” manufactured by DIFCO) having peptide concentrations of 200, 100, 50, 25, 12.5, 6.25, 3.13, 1.56 and 0.78 μM were produced respectively. The produced liquid-bouillon mediums including the peptide of each concentration were then fed to the 96-well microplate at 100 μL a time.
(§2) At the same time, test bacteria cultured for 18 hours at 37° C. on an agar plate (“Muller Hinton Agar” manufactured by DIFCO) were gathered by scratching with a loop, and then suspended in a sterilized physiological saline. Bacterial suspension 5 μL prepared at an equivalent of 2×10^7 cells/mL was respectively inoculated (number of bacteria to be tested: approximately 1×10^6 cells/mL) onto the above-described liquid-bouillon mediums including the peptide of each concentration and fed to each well of the above-described microplate. After inoculation, the microplate was then incubated in an incubator at 37° C., and the presence of bacteria was evaluated based on the turbidity 24 hours later. The minimum drug concentration (peptide concentration), in which an increased in turbidity caused by bacteria was not detected at the time of measurement, was defined as MIC (minimum inhibitory concentration) (unit: μM) in the present embodiment.

Escherichia coli = type: cell-based
Method: as §1, §2

[1] = liquid-bouillon medium (Nutrient Broth), 37° C., turbidity after 24 hours

Row | SMILES | Antimicrobial Activities (MIC) S. aureus (Staphylococcus aureus; 24 h) [µM] | Antimicrobial Activities (MIC) E. coli (Escherichia coli; 24 h) [µM] | Antimicrobial Activities (MIC) S. aureus (Staphylococcus aureus; [1]) [µM] | antimicrobial activities against gram-positive bacteria (S. aureus), in words (Staphylococcus aureus) | Antimicrobial Activities (MIC) E. coli (Escherichia coli; [1]) [µM] | antimicrobial activities against E. coli, in words (Escherichia coli; summary of Table 2)
1 | CC(C)C[C@H](NC(=O)[C@H](CCCNC(=N)N)NC(=O)[C@H](CCC(=O)O)NC(=O)[C@H](CC(C)C)NC(=O)[C@@H]1CCCN1C(=O)[C@@H]1CCCN1C(=O)[C@@H](N)CC(C)C)C(=O)N[C@H](C(=O)N[C@@H](CC(C)C)C(=O)N[C@@H](CC(=O)O)C(N)=O)[C@@H](C)O [Comparative Sample 1, LPPLERLTLD, reference compound] (H-LPPLERLTLD-NH2) |  |  | >200 | no antimicrobial activity | >200 | no antimicrobial activity
2 | CC(C)[C@H](NC(=O)[C@H](C)NC(=O)[C@@H](NC(=O)[C@H](CCCCN)NC(=O)[C@@H](N)CCCCN)C(C)C)C(=O)N[C@H](C(=O)N[C@@H](CCCNC(=N)N)C(N)=O)C(C)C [Sample 1, KKVAVVR] (H-KKVAVVR-NH2) | 50 | 200 |  |  |  | 
3 | CC[C@H](C)[C@H](NC(=O)[C@H](CCC(N)=O)NC(=O)[C@@H](NC(=O)[C@@H](N)CCCCN)C(C)C)C(=O)N[C@H](C(=O)N[C@@H](CC(N)=O)C(=O)N[C@@H](CCCCN)C(=O)N[C@@H](CCCCN)C(N)=O)[C@@H](C)CC [Sample 2, KVQIINKK] (H-KVQIINKK-NH2; N-terminus assumed) | 200 | 200 |  |  |  | 
4 | CC(C)[C@H](NC(=O)[C@H](C)NC(=O)[C@@H](NC(=O)[C@H](CCCCN)NC(=O)[C@H](CCCCN)NC(=O)[C@@H](NC(=O)[C@H](CCCNC(=N)N)NC(=O)[C@@H](NC(=O)[C@@H](NC(=O)[C@H](C)NC(=O)[C@@H](NC(=O)[C@H](CCCCN)NC(=O)[C@@H](N)CCCCN)C(C)C)C(C)C)C(C)C)[C@@H](C)O)C(C)C)C(=O)N[C@H](C(=O)N[C@@H](CCCNC(=N)N)C(=O)N[C@H](C(N)=O)[C@@H](C)O)C(C)C [Sample 8, KKVAVVRTKKVAVVRT] (H-KKVAVVRTKKVAVVRT-NH2) | 6.25 | 50 |  | particularly high antimicrobial activities |  | 
5 | CC[C@H](C)[C@H](NC(=O)[C@H](CCC(N)=O)NC(=O)[C@@H](NC(=O)[C@@H](N)CCCCN)C(C)C)C(=O)N[C@H](C(=O)N[C@@H](CC(N)=O)C(=O)N[C@@H](CCCCN)C(=O)N[C@@H](CCCCN)C(=O)N[C@@H](CC(C)C)C(=O)N[C@@H](CC(=O)O)C(=O)N[C@H](C(=O)N[C@@H](CO)C(=O)N[C@@H](CC(N)=O)C(=O)N[C@@H](CC(C)C)C(=O)N[C@@H](CCSC)C(=O)N[C@@H](Cc1c[nH]c2ccccc12)C(=O)N[C@@H](Cc1c[nH]c2ccccc12)C(=O)N[C@@H](CC(C)C)C(=O)N[C@@H](CC(C)C)C(N)=O)C(C)C)[C@@H](C)CC [Sample 11, KVQIINKKLDVSNLMWWLL] (H-KVQIINKKLDVSNLMWWLL-NH2) | 12.5 | 25 |  | particularly high antimicrobial activities |  | 
6 | CC[C@H](C)[C@H](NC(=O)[C@H](CCC(N)=O)NC(=O)[C@@H](NC(=O)[C@@H](N)CCCCN)C(C)C)C(=O)N[C@H](C(=O)N[C@@H](CC(N)=O)C(=O)N[C@@H](CCCCN)C(=O)N[C@@H](CCCCN)C(=O)N[C@@H](CC(C)C)C(=O)N[C@@H](CCSC)C(=O)N[C@@H](Cc1c[nH]c2ccccc12)C(=O)N[C@@H](Cc1c[nH]c2ccccc12)C(=O)N[C@@H](CC(C)C)C(=O)N[C@@H](CC(C)C)C(N)=O)[C@@H](C)CC [Sample 12, KVQIINKKLMWWLL] (H-KVQIINKKLMWWLL-NH2) | 3.13 | 12.5 |  | particularly high antimicrobial activities |  | 

Further lines, with some results ahead:

Row | Antimicrobial Activities (MIC) S. aureus (Staphylococcus aureus; 24 h) [µM] | Antimicrobial Activities (MIC) E. coli (Escherichia coli; 24 h) [µM] | SMILES | Antimicrobial Activities (MIC) S. aureus (Staphylococcus aureus; [1]) [µM] | antimicrobial activities against gram-positive bacteria (S. aureus), in words (Staphylococcus aureus) | Antimicrobial Activities (MIC) E. coli (Escherichia coli; [1]) [µM] | antimicrobial activities against E. coli, in words (Escherichia coli; summary of Table 2)
7 | 3.13 | 6.25 | CC[C@H](C)[C@H](NC(=O)[C@H](CCC(N)=O)NC(=O)[C@@H](NC(=O)[C@H](CCCNC(=N)N)NC(=O)[C@H](CCC(N)=O)NC(=O)[C@H](CC(C)C)NC(=O)[C@H](CCCCN)NC(=O)[C@H](CCCNC(=N)N)NC(=O)[C@H](CCCCN)NC(=O)[C@@H](N)CC(C)C)C(C)C)C(=O)N[C@H](C(=O)N[C@@H](Cc1ccc(O)cc1)C(=O)N[C@@H](CCCCN)C(N)=O)C(C)C [Sample 3, LKRKLQRVQIVYK] (H-LKRKLQRVQIVYK-NH2) |  | particularly high antimicrobial activities |  | 
8 | 6.25 | 100 | CC[C@H](C)[C@H](NC(=O)[C@H](CCC(N)=O)NC(=O)[C@@H](NC(=O)[C@H](CCCNC(=N)N)NC(=O)[C@H](CCC(N)=O)NC(=O)[C@H](CC(C)C)NC(=O)[C@H](CCCCN)NC(=O)[C@H](CCCNC(=N)N)NC(=O)[C@H](CCCCN)NC(=O)[C@@H](N)CC(C)C)C(C)C)C(=O)N[C@H](C(=O)N[C@@H](CC(N)=O)C(=O)N[C@@H](CCCCN)C(N)=O)[C@@H](C)CC [Sample 4, LKRKLQRVQIINK] (H-LKRKLQRVQIINK-NH2) |  | particularly high antimicrobial activities |  | 
9 | 12.5 | 100 | CC(C)[C@H](NC(=O)[C@H](C)NC(=O)[C@@H](NC(=O)[C@H](CCCCN)NC(=O)[C@H](CCCCN)NC(=O)[C@H](CCCNC(=N)N)NC(=O)[C@@H](NC(=O)[C@@H](NC(=O)[C@H](C)NC(=O)[C@@H](NC(=O)[C@H](CCCCN)NC(=O)[C@@H](N)CCCCN)C(C)C)C(C)C)C(C)C)C(C)C)C(=O)N[C@H](C(=O)N[C@@H](CCCNC(=N)N)C(N)=O)C(C)C [Sample 5, KKVAVVRKKVAVVR] (H-KKVAVVRKKVAVVR-NH2) |  | particularly high antimicrobial activities |  | 
10 | 1.56 | 6.25 | CC[C@H](C)[C@H](NC(=O)[C@H](CCC(N)=O)NC(=O)[C@@H](NC(=O)[C@H](CCCCN)NC(=O)[C@H](CCCCN)NC(=O)[C@H](CCCCN)NC(=O)[C@H](CC(N)=O)NC(=O)[C@@H](NC(=O)[C@@H](NC(=O)[C@H](CCC(N)=O)NC(=O)[C@@H](NC(=O)[C@@H](N)CCCCN)C(C)C)[C@@H](C)CC)[C@@H](C)CC)C(C)C)C(=O)N[C@H](C(=O)N[C@@H](CC(N)=O)C(=O)N[C@@H](CCCCN)C(=O)N[C@@H](CCCCN)C(N)=O)[C@@H](C)CC [Sample 6, KVQIINKKKVQIINKK] (H-KVQIINKKKVQIINKK-NH2) |  | particularly high antimicrobial activities |  | 
11 | 3.13 | 6.25 | CC(C)[C@H](NC(=O)[C@H](C)NC(=O)[C@@H](NC(=O)[C@H](CCCCN)NC(=O)[C@H](CCCCN)NC(=O)[C@@H](NC(=O)[C@H](CCCCN)NC(=O)[C@H](CCCNC(=N)N)NC(=O)[C@H](CCCCN)NC(=O)[C@H](CCCCN)NC(=O)[C@H](CCCCN)NC(=O)[C@@H](N)CCCNC(=N)N)C(C)C)C(C)C)C(=O)N[C@H](C(=O)N[C@@H](CCCNC(=N)N)C(N)=O)C(C)C [Sample 7, RKKKRKVKKVAVVR] (H-RKKKRKVKKVAVVR-NH2) |  | particularly high antimicrobial activities |  | 
